A short description of data set [1]: Pharmacokinetics of arecoline in rats after intranasal and intramuscular administration. The class given is in vivo, Male Lewis rats. To be noted: for Tmax / half-life / AUC / Cmax: male, Lewis, rat, plasma; for AUC / Cmax: n=3 rats. On the procedure:
(§1) The blood samples were collected into heparinized test tubes. […] Plasma was separated immediately and stored frozen.
The analytical method of arecoline in plasma was performed by gas-chromatography-mass spectrometry (GC-MS) after solvent extraction using a method similar to that described in Beil, et al., Drug Develop Res, 9, 203-212 (1986). Nicotine was used as an internal standard. In this method, 50µl of nicotine solution in chloroform (1.5 µg/ml and 50 µl of 10% triethylamine in chloroform were added to 0.5 ml cold plasma in a 5 ml test tube with a screw cap. The tubes were vortexed for 1 minute and centrifuged for 10-15 minutes. The organic layer was then removed, placed in a micro vial and sealed with perfluoroethylene tape such as Teflon®, until analysis.
GC-MS analysis was performed using an HP-1 column, (crosslinked methyl silicon, 12 m x […] x 0.33 µm film thickness). Two µl aliquots were injected onto the column in a splitless mode. Helium was used as a carrier gas. Detection was accomplished using a gas chromatograph electron impact mass selective detector set at m/z=155 and 162. The limit of arecoline detection was 15 ng/ml.

Data set [2] in a line: In situ-in vivo nasal study: dosing in one nostril and washing out from the other. Set-up: species or system rats. The following applies: after 15 minutes of dosing in one nostril.
Data set [3] relates to rats. Put plainly: Survival of rats after arecoline administration by different routes. In kind it is in vivo. On the procedure:
as §1
Plasma arecoline concentrations were determined after nasal and i.m. administration of the compound. After intranasal administration, arecoline was absorbed very rapidly (tmax= 3 +/- 1.6 min), faster than after i.m. administration (tmax=13.3 +/- 6.2 min). […] It is not known why absorption after i.m. was slower. […] Bolus i.v. studies were also performed, but the rats died. […]

Data set [4] deals with patients having Alzheimer presenile dementia. To be noted: cited from earlier work.
Data set [5] deals with normal human subjects. The following applies: cited from earlier work.
For data set [6] the following is noted: cited from earlier work.
A short description of data set [7]: Pharmacokinetics of physostigmine in rats after intravenous and intranasal administration. As to the method: Male Lewis rats, each weighing approximately 300 grams were anesthesized with pentobarbital (50 mg/kg i.p.). The jugular vein was cannulated and attached to a syringe through a three way stopcock for blood collections. For nasal administration of physostigmine and arecoline, an incision was made in the neck of the animals and the trachea was cannulated with a polyethylene (PE) tube. A closed tube was inserted through the esophagus to the posterior part of the nasal cavity. The nasopalatine passage was closed with an adhesive agent to prevent drainage of the drug from the nasal cavity to the mouth. An aqueous solution of physostigmine hemi-sulfate (obtained from Sigma Chemical, St. Louis, Mo.) dose equivalent to 200 µg/kg of physostigmine base in a volume of 150 µl/kg was administered to the nasal cavity by means of a Hamilton syringe with PE tubing attached to the end. For arecoline hydrobromide (obtained from Sigma Chemical, St. Louis, MO.), an aqueous solution with a dose of 2 mg/kg was administered in a volume of 150 µl/kg. Blood samples (1 ml) were withdrawn through the jugular cannula and replaced with equal volume of fresh blood after each sampling as a function of time. For intravenous administration of physostigmine the same dose as nasal (200 µg/kg) in a volume of 1 ml/kg was injected through the femoral vein. For intramuscular arecoline hydrobromide, the dose was 1 mg/kg in a volume of 1 ml/kg injected into the biceps femoris. The blood samples were collected into heparinized test tubes. In the case of physostigmine the tubes also contained 50 µl of a 100 µg/ml neostigmine bromide (as a stabilizer for physostigmine). Plasma was separated immediately and stored frozen.
The analytical method for physostigmine in plasma was a modification of that described in Brodie, et al., J. Chromatogr. 415, 423-431 (1987). Plasma samples (0.5 ml) were pipetted into extraction tubes, and 0.2 ml of an aqueous solution of 3,3-bis(4- pyridylmethyl)-1-phenyl indolin-2-one as an internal standard (1.5 µg/ml), 2 ml of ethylacetate and 0.2 ml of a 3.5% sodium carbonate solution were added. The tubes were shaken mechanically for 0.5 minute and centrifuged for 5 minutes. The organic layer was then transferred to 12 X 75 mm tubes, evaporated to dryness under a steam of nitrogen, and the residue was reconstituted in 0.2 ml acetonitrile. After mechanical shaking (2 minutes), aliquots (125 µl) were analyzed by High Performance Liquid Chromatography (HPLC) using a dual detection system, where detection of physostigmine was by a fluorimetric detector and detection of the internal standard was by an ultraviolet (u.v.) detector.
Separation was achieved on a 25 cm x 4.6 mm reverse phase (Zorbax® C₈, Du Pont) column attached to a guard column with C₈ packing at ambient temperature The mobile phase contained 0.2 M ammonium acetate-acetonitrile (2:3), adjusted to pH 8.2-8.3 with triethylamine and was delivered at a flow rate of 1.5 ml/min. Detection of physostigmine was by fluorimetric detector (Spectroflow 980 Programmable Fluorescence Detector, Kratos) operated at excitation and emission wavelengths of 254 and 320 nm, respectively. Detection of the internal standard was by u.v. detector (Lambda-Max Model 481 LC Spectrophotometer, Waters instrument) set at 254 nm. […] The other components of the HPLC system were a Waters 590 Programmable HPLC pump, an autosampler (Waters WISP 710B) and a recording integrator (Hewlett-Packard Model 3393A).

[8] abbreviates: im, 1 mg/kg, after i.m. administration.
The mark [9] stands for this setting: im, Intramuscular, 1 mg/kg Arecoline HBr.
[10] abbreviates: inhaled or intranasal, 2 mg/kg, after intranasal administration.
[11] abbreviates: inhaled or intranasal, Intranasal, 2 mg/kg Arecoline HBr.
[12] abbreviates: male, Lewis, rat, plasma, inhaled or intranasal, 200 ug/kg.

The values that follow come from patent EP0389975A1, “Intranasal administration of physostigmine and arecoline” (priority 1989, dated 1990).

SMILES strings stand for the structures. Where two headings read alike, the source gives them in different places.

What is called Tmax is the time at which the peak concentration occurs. One may read the half-life as the time in which the quantity being followed falls by half. High values mean slow decline, low ones rapid decline. Broadly, the AUC is concentration integrated over time. Higher therefore signals high exposure. Usually Cmax stands for the maximum level reached in the sampled fluid or tissue. What is called bioavailability is dose-corrected exposure relative to a reference, in per cent.

As for `COC(=O)C1=CCCN(C)C1` [arecoline], the Tmax is 5.43 min in data set [1] (im, 1 mg/kg, Intramuscular, 1 mg/kg Arecoline HBr, n=3 rats (Table 2)); 13.3 min in data set [1] (setting [8]); 3 min in data set [1] (inhaled or intranasal, 2 mg/kg, Intranasal, 2 mg/kg Arecoline HBr, n=3 rats (Table 2)); 3 min in data set [1] (setting [10]). Further, the half-life stood at 5.4 ± 1.1 min in data set [1] (setting [8]) and 2 ± 0.6 min in data set [1] (setting [10]). Moreover, the AUC was 77.7 ng·h/mL in data set [1] (setting [9]) and 141 ng·h/mL in data set [1] (setting [11]). For the same compound, the Cmax in data set [1] (setting [9]) worked out at 249 ± 22 ng/mL; in data set [1] (setting [11]), 1750 ± 523 ng/mL. Also, in data set [1] (ratio of AUC (nasal/intramuscular) X 100), the Bioavilability was 85%. Moreover, the “residual arecoline in the nose” value in data set [2] is “no residual arecoline”. The death of rats entry in data set [3] (bolus i.v.) is “the rats died”; in data set [3] (i.m. administration) it was “None of the rats died”; in data set [3] (intranasal administration) it was “None of the rats died”. Further, the picture recognition tests result is given as “trend toward improvement” in data set [4] (2 mg doses) and “improvement” in data set [4] (intravenous administration of 4 mg). Also, in data set [5], the serial learning entry was “significantly enhanced”. In addition, the “bioavailability upon oral administration” value in data set [6] is reported as “not bioavailable”.

For `CNC(=O)Oc1ccc2c(c1)[C@]1(C)CCN(C)[C@@H]1N2C` [physostigmine], the time to peak (Tmax) in data set [7] (Nasal, 200 µg/kg, n = 7 rats (Table 1)) came to 6.5 ± 1.7 min. For the same compound, in data set [7] (setting [12]), the AUC was 38.9 ng·h/mL, the Cmax was found to be 86 ± 5 ng/mL, the time to peak (Tmax) was 6.5 min and the half-life amounted to 36 ± 16 min. Moreover, the area under the curve (AUC) in data set [7] (male, Lewis, rat, plasma, iv, 200 ug/kg) was 40.2 ng·h/mL. In data set [7] (male, Lewis, rat, plasma, iv, 200 µg/kg), this compound gave a bioavailability of 97%. Moreover, in data set [4] (0.25 mg and 0.75 mg doses), the picture recognition tests entry is “trend toward improvement”. Also, the picture recognition tests entry in data set [4] (intravenous administration of 0.375 mg) is reported as “improvement”.
